In brackets after ≈: the same amount, converted by molar mass. Entries after “also recorded” stand apart in the source; their conditions may differ. Structures can show the parent of a compound that is named as a salt. Where two headings read alike, the source gives them in different places. Each block holds one compound with its values, some of them ahead of it.
Experiments:
[1] = test system: human colon carcinoma HT29 cell line; experiment: MTT growth inhibitory assay, HT29; assay type: cell-based; conditions: for IC50: Homo sapiens, HT-29, HT29 cells, read-out: IC50 of anti-neoplastic agent used jointly with A3 antagonist; for HT29 more refractory than the A375 cell line: ratio of IC50 HT29 vs A375
Source text: (§1) The cells are sub-cultured twice a week.

P-gp [2] = biological target: T1, P-gp (Homo sapiens, UniProt P08183); experiment: Rhodamine 123 efflux assay, HeL023 cells; assay type: cell-based; parameters: nearly all (100±1%) the cells expressing high level of functional P-gp; endogenous in cells; host or cells: HeL023 human erythroleukemia cells; conditions: for inhibition of P-gp activity (in words): Rh123 efflux; for % of Rh123 negative cells: antagonist 10 μM, cells expressing P-gp activity
T1 sequence (P08183 whole entry): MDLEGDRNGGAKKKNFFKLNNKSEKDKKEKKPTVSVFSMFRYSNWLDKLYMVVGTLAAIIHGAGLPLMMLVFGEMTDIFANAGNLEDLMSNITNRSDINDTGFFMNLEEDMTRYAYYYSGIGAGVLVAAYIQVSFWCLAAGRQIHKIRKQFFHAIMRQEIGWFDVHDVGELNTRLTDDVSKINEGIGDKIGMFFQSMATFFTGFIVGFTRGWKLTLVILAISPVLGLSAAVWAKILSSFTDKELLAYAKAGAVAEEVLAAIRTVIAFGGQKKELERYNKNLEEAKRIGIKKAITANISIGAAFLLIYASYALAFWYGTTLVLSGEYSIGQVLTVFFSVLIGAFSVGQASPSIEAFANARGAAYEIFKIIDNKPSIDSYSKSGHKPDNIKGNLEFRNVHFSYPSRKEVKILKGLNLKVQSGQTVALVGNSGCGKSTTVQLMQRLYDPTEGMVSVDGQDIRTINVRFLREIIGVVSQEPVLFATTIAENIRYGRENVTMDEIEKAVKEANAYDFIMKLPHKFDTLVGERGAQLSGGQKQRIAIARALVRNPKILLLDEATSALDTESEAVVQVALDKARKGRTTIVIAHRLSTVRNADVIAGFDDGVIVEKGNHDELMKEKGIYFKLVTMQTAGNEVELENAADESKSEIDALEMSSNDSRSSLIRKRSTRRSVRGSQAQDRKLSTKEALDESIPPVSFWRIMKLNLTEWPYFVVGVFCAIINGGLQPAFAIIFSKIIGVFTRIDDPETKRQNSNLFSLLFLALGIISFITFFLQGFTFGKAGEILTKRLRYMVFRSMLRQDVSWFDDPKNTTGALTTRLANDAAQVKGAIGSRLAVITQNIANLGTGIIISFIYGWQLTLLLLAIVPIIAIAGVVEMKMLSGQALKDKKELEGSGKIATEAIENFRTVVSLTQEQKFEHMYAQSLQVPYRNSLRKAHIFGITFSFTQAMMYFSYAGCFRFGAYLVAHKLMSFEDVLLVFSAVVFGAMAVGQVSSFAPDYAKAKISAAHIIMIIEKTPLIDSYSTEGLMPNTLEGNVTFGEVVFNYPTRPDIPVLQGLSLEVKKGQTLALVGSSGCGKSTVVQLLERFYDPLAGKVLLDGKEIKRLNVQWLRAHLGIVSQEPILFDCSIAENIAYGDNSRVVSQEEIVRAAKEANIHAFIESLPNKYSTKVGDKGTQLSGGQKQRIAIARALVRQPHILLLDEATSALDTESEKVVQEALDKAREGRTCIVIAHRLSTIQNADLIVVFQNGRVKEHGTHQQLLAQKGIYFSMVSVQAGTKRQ
Method: (§2) 5×10^5 cells from each subline were loaded with 50 ng/ml of rhodamine 123 for 30 minutes at 37° C. in medium. The cells were washed and resuspended in dye-staining agent free medium for 3 hours at 37° C. to allow rhodamine 123 efflux. The cells were then washed twice and the fluorescence of intracellular rhodamine 123 were analysed with Flow cytometer (residual fluorescence FRES). The fluorescence was compared with loaded cells maintained at 4° C. to prevent drug export (maximal fluorescence FMAX). […] Cells from each subline that were not being exposed to rhodamine 123 were used as negative controls.
(§3) Rhodamine 123 (Rh 123) retention, a P-gp functional assay, was studied in all cell lines. This assay was performed by incubating cells with Rh 123 and determining Rh 123 accumulation by measuring its fluorescence. The maximum load of Rh 123 (FMAX) was quantified at the end of treatment harvesting the cells and storing them at 4° C. to prevent any active Rh123 efflux. The P-gp drug efflux was allowed incubating Rh 123-loaded cells in fresh new medium Rh 123-free for 3 hours at 37° C. After this incubation, residual fluorescence (FRES) was measured and compared to FMAx.

P-gp [3] = biological target: T1, P-gp; experiment: Rhodamine 123 efflux assay, A375 cells; assay type: cell-based; parameters: endogenous in cells
Method: as §2, §3

A375 cells = experiment: Metabolic (MEK, ERK, p38MAPK) inhibitors on G2/M arrest and apoptosis, flow cytometry; assay type: cell-based, human
[4] = test system: human lung carcinoma SKMES cell line; experiment: MTT growth inhibitory assay, SKMES; assay type: cell-based; conditions: SKMES cells, read-out: IC50 of anti-neoplastic agent used jointly with A3 antagonist
Source text: as §1

A375 melanoma cells = experiment: Colony formation assay; assay type: cell-based, human; conditions: for colony formation: 7 days
Method: FIG. 2 illustrates colony formation assay of A375 cells. Cells were treated with different drugs and colonies were counted after 7 days. The values represent the mean±SEM of four independent experiments. D=DMSO (control); T=paclitaxel, 0.75 ng/ml; M=MRE 3008F20, 10 μM; C═CI-IB-MECA, 10 μM; TM=paclitaxel plus MRE 3008F20; TC=paclitaxel plus CI-IB-MECA treated cells. *P<0.01 TM versus T. Analysis was by ANOVA followed by Dunnett's test.;
Control plates received the same volume of DMSO alone. After 7 days of growth at 37° C. in humidified atmosphere containing 5% CO2, the cells were fixed with absolute methanol for 5′ and stained with 1/10 Giemsa/phosphate-buffered saline (PBS) staining solution for 10 minutes. Staining solution was removed and colonies of greater than 30 cells were scored as survivors. For each treatment, six individual wells were scored.

- IC50 ([1]; with IL-10 0.5 μg/ml): 0.31 µg/mL (≈ 0.57 µM)
- IC50 ([1]; with IL-11 0.5 μg/ml): 0.38 µg/mL (≈ 0.699 µM)
- IC50 ([1]; with MRE3008F20 1 μg/ml): 0.28 µg/mL (≈ 0.515 µM)
SMILES: COc1cccc2c1C(=O)c1c(O)c3c(c(O)c1C2=O)C[C@@](O)(C(=O)CO)C[C@@H]3O[C@H]1C[C@H](N)[C@H](O)[C@H](C)O1 [doxorubicin]
- HT29 more refractory than the A375 cell line [1]: approximately 30 fold

- inhibition of P-gp activity (in words) (P-gp [2]): strong inhibitors of P-gp activity
- % of Rh123 negative cells (P-gp [2]): 0.4 ± 0.2%
SMILES: CCN(CC)c1ccc(NC(=O)Nc2nc3nn(C)cc3c3nc(-c4ccco4)nn23)cc1 [IL-10, N-1-(4-diethylamino-phenyl)-N′-5-[8-methyl-2-(2-furyl)-pyrazolo [4,3-e]1,2,4-triazolo[1,5-c]pyrimidine]-urea]

SMILES: N#CC(=C(/N)Sc1ccccc1N)/C(C#N)=C(\N)Sc1ccccc1N [U0126]
- effect on MRE 3008F20 blockade of P-gp (in words) (P-gp [3]; U0126 30 μM for 30 minutes, then MRE3008F20 10 μM): failed to prevent
- G2/M accumulation rate of inhibitor plus paclitaxel or vindesine respect to paclitaxel or vindesine alone (in words) (A375 cells; A375, PD98059 20 μM, U0126 30 μM, SB203580 1 μM): did not alter

- % of Rh123 negative cells (P-gp [2]): 0.5 ± 0.3%
SMILES: CCCn1cc2c(nc(NC(=O)Nc3ccc(OC)cc3)n3nc(-c4ccco4)nc23)n1 [MRE3008F20, 5-[[(4-Methoxyphenyl)amino]carbonyl]amino-8-propyl-2-(2-furyl)-pyrazolo[4,3-e]1,2,4-triazolo[1,5-c]pyrimidine]
- P-gp mediated Rh123 transport (in words) (P-gp [3]; MRE3008F20 10 μM): completely blockade of P-gp mediated Rh123 transport
- inhibition of P-gp activity (in words) (P-gp [2]): near total P-gp inhibition; also recorded: strong inhibitors of P-gp activity

- inhibition of P-gp activity (in words) (P-gp [2]): strong inhibitors of P-gp activity
- % of Rh123 negative cells (P-gp [2]): 1.0 ± 0.2%
SMILES: CCCCn1cc2c(nc(NC(=O)Nc3ccccc3)n3nc(-c4ccco4)nc23)n1 [MRE 3062F20, 5-N-(4-phenyl-carbamoyl)amino-8-butyl-2(2furyl)-pyrazolo-[4,3e]-1,2,4triazolo[1,5-c]pyrimidine]

SMILES: O=C1c2c(O)ccc(O)c2C(=O)c2c(NCCNCCO)ccc(NCCNCCO)c21 [mitoxantrone]
- HT29 more refractory than the A375 cell line [1]: approximately 30 fold

- IC50 ([4]; with IL-10 0.5 μg/ml): 0.67 µg/mL
- IC50 ([4]; with IL-11 0.5 μg/ml): 0.061 µg/mL
- IC50 ([4]; with MRE3008F20 1 μg/ml): 0.57 µg/mL
- IC50 ([1]; with IL-10 0.5 μg/ml): 0.77 µg/mL
- IC50 ([1]; with IL-11 0.5 μg/ml): 0.85 µg/mL
- IC50 ([1]; with MRE3008F20 1 μg/ml): 0.53 µg/mL
SMILES: CCc1c2c(nc3ccc(OC(=O)N4CCC(N5CCCCC5)CC4)cc13)-c1cc3c(c(=O)n1C2)COC(=O)[C@]3(O)CC [irinotecan HCL]

- inhibition of P-gp activity (in words) (P-gp [2]): strong inhibitors of P-gp activity
SMILES: CCCn1cc2c(nc(NC(=O)Nc3ccccc3)n3nc(-c4ccco4)nc23)n1 [MRE 3055F20, 5-N-(4-phenylcarbamoyl)amino-8-propyl-2 (2furyl)-pyrazolo[4,3e]-1,2,4triazolo-[1,5c]pyrimidine]

SMILES: Nc1nc2ccc(Cl)cc2c2nc(-c3ccco3)nn12 [CGS 15943, 5-amino-9-chloro-2-(furyl) 1,2,4-triazolo[1,5-c]quinazoline]
- inhibition of P-gp activity (in words) (P-gp [2]): much lower effect on P-gp activity

SMILES: CNC(=O)[C@H]1O[C@@H](n2cnc3c(NCc4cccc(I)c4)nc(Cl)nc32)[C@H](O)[C@@H]1O [CI-IB-MECA]
- colony formation increased (A375 melanoma cells; CI-IB-MECA 10 μM alone vs DMSO control): about 30%
- colony formation increased (A375 melanoma cells; CI-IB-MECA 10 μM combined with paclitaxel 0.75 ng/ml vs paclitaxel alone): 32%
- colony formation (A375 melanoma cells; CI-IB-MECA 10 μM or MRE 3008F20 10 μM combined with paclitaxel 0.75 ng/ml): 85 % of control
- colony formation (A375 melanoma cells; agent alone (CI-IB-MECA 10 μM; paclitaxel 0.75 ng/ml; MRE 3008F20 10 μM)): 130 % of control

- inhibition of P-gp activity (in words) (P-gp [2]): much lower effect on P-gp activity
SMILES: Nc1nc(NCCc2ccc(O)cc2)nc2nc(-c3ccco3)nn12 [ZM 241385, 4-(2-[7-amino-2-(2-furyl)-[1,2,4]triazolo[2,3-a][1,3,5]triazin-5-ylamino]ethyl)phenol]

- inhibition of P-gp activity (in words) (P-gp [2]): strong inhibitors of P-gp activity
SMILES: Cc1ccc(NC(=O)Nc2nc3nn(C)cc3c3nc(-c4ccco4)nn23)cc1 [MRE 3046F20, 5-N-(4-methylphenyl-carbamoyl)amino-8-methyl-2 (2-furyl)-pyrazolo-[4,3e]-1,2,4-triazolo[1,5-c]pyrimidine]

SMILES: C[S+]([O-])c1ccc(-c2nc(-c3ccncc3)c(-c3ccc(F)cc3)[nH]2)cc1 (centres unmarked) [SB203580]
- G2/M accumulation rate of inhibitor plus paclitaxel or vindesine respect to paclitaxel or vindesine alone (in words) (A375 cells): did not alter

- IC50 ([4]; with IL-10 0.5 μg/ml): 0.0011 µg/mL (≈ 0.00136 µM)
- IC50 ([4]; with IL-11 0.5 μg/ml): 0.00094 µg/mL (≈ 0.00116 µM)
- IC50 ([4]; with MRE3008F20 1 μg/ml): 0.0013 µg/mL (≈ 0.0016 µM)
SMILES: CC[C@]1(O)C[C@@H]2CN(CCc3c([nH]c4ccccc34)[C@@](C(=O)OC)(c3cc4c(cc3OC)N(C)[C@H]3[C@@](O)(C(=O)OC)[C@H](OC(C)=O)[C@]5(CC)C=CCN6CC[C@]43[C@@H]65)C2)C1 [vinblastine]
